Results as given in BindingDB's records for PubMed 2704370 (National Institute of Mental Health, 1989).
pKi: −log10 of the molar value.

What was measured:
[1] = target: T1, Muscarinic acetylcholine receptor M1 (Rattus norvegicus, UniProt P08482)
T1 sequence (P08482 whole entry): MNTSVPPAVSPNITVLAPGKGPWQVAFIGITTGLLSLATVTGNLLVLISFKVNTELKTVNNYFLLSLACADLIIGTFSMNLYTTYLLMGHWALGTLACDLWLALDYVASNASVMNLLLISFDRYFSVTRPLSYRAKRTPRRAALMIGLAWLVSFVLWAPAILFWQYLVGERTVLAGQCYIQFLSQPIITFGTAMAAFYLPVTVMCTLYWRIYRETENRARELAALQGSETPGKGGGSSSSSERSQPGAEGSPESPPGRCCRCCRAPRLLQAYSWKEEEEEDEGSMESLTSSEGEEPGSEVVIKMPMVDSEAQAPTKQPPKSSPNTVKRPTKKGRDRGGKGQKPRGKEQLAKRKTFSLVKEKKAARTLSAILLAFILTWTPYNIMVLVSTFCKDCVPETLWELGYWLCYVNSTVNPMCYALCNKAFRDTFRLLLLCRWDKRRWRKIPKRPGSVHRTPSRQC

[2] = target: T2, Muscarinic acetylcholine receptor M4 (Homo sapiens, UniProt P08173)
T2 sequence (P08173 whole entry): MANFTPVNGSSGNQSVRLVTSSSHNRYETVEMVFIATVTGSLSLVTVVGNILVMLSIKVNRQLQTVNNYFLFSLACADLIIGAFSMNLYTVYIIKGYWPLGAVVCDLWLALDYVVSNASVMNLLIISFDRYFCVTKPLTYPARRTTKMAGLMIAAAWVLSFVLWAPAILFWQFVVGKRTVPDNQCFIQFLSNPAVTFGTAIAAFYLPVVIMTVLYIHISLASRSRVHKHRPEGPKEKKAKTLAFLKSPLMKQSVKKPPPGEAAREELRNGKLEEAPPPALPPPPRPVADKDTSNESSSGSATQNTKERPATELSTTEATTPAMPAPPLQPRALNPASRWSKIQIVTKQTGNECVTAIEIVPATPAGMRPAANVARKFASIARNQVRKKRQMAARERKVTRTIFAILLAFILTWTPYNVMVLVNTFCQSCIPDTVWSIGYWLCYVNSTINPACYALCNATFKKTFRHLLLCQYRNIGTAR

[3] = target: T3, Muscarinic acetylcholine receptor M5 (Homo sapiens, UniProt P08912)
T3 sequence (P08912 whole entry): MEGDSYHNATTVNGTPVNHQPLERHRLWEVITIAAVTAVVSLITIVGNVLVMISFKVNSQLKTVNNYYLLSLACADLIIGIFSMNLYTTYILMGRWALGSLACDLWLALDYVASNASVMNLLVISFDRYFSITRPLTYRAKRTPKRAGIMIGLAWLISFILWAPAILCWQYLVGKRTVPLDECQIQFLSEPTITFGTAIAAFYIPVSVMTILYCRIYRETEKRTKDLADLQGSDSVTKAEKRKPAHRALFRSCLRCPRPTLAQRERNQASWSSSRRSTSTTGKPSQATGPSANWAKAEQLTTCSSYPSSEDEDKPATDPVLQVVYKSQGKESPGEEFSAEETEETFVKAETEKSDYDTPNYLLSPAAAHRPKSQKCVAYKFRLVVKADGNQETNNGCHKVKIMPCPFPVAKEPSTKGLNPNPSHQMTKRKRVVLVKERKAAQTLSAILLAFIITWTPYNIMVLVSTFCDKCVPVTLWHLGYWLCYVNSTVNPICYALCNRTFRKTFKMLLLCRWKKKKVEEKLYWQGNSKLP

| Structure (SMILES) | pKi [1] | pKi [2] | pKi [3] |
| --- | --- | --- | --- |
| C[N+]1(C)CCN(CC(O)(c2ccccc2)C2CCCCC2)CC1 (stereo unspecified) [CAS_115-63-9] | 8.64 | 8.26 | 8.43 |
| OC(CCCN1CCCCC1)(c1ccccc1)C1CCCCC1 (stereo unspecified) [CAS_113010-69-8] | 7.96 | – | 7.08 |
| C[N+]1([SiH3])CCN(CC(O)(c2ccccc2)C2CCCCC2)CC1 (stereo unspecified) [CAS_124393-85-7] | 8.70 | 8.49 | 8.70 |
| O[Si](CCCN1CCCCC1)(c1ccccc1)C1CCCCC1 (stereo unspecified) [HHSiD] | 7.36 | – | 7.20 |
| COc1ccccc1CNCCCCCCNCCCCCCCCNCCCCCCNCc1ccccc1OC [METHOCTRAMINE] | – | – | 7.24 |
